Test results taken from publication PMC4965013, “Open Source Drug Discovery with the Malaria Box Compound Collection for Neglected Diseases and Beyond” (PLoS Pathogens, 2016).
“And” between values parts separate entries of the source, which are not always exact repeats. Identical values can stand only once. Like-named read-outs stand apart in the source and are kept apart here.

Key:
Toxoplasma gondii TS-4 = settings: ref [84]; read-out: Toxoplasma gondi TS4 EC50; cited from earlier work
[1] = system: Naegleria fowleri trophozoites; assay: Naegleria fowleri CellTiter-Glo; assay type: cell-based; settings: 1µM
Method in brief: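 Growth inhibition of Naegleria fowleri trophozoites in vitro, read as cellular ATP by CellTiter-Glo 2.0 luminescence in lysed cells, output in relative light units.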

Brugia malayi = Brugia malayi Scynexis; assay type: cell-based; settings: 10µM
Experimental: Supplement ppat.1005763.s002.xlsx, sheet "S1 Table Heat Map" | column: Brugia malayi 5d % dead at 10µM Scynexis

[2] = system: S. mansoni newly transformed schistosomula (NTS); parameters: method as in ref [91] (a number printed in a supplementary file, which may have a reference list of its own: not looked up in the article's list); settings: ref [91]; read-out: Schistosoma mansoni newly transformed schistosomula EC50 J. Keiser; cited from earlier work
[3] = system: P. falciparum 3D7, HB3, Dd2, W2, K1, FCR3; assay: Asexual EC50 image assay, six strains, Ayong; assay type: cell-based; settings: Plasmodium falciparum
CYP2D6 mRNA = assay: MPCC LMA-Luminex CYP2D6 mRNA; assay type: cell-based, human; settings: 10µM
CYP3A4 mRNA = assay: MPCC LMA-Luminex CYP3A4 mRNA; assay type: cell-based, human; settings: 10µM
MAOB mRNA = assay: MPCC LMA-Luminex MAOB mRNA; assay type: cell-based, human; settings: 10µM
MAOA mRNA = assay: MPCC LMA-Luminex MAOA mRNA; assay type: cell-based, human; settings: 10µM
CYP2D8 mRNA = assay: MPCC LMA-Luminex CYP2D8 mRNA; assay type: cell-based, human; settings: 10µM
CYP1A2 mRNA = assay: MPCC LMA-Luminex CYP1A2 mRNA; assay type: cell-based, human; settings: 10µM
CYP2C19 mRNA = assay: MPCC LMA-Luminex CYP2C19 mRNA; assay type: cell-based, human; settings: 10µM
CYP2C9 mRNA = assay: MPCC LMA-Luminex CYP2C9 mRNA; assay type: cell-based, human; settings: 10µM
[4] = system: Strongyloides stercoralis; assay: Strongyloides stercoralis Scynexis; assay type: cell-based; settings: 10µM
Experimental: Supplement ppat.1005763.s002.xlsx, sheet "S1 Table Heat Map" | column: Strongyloides stercoralis % dead at 10µM Scynexis

[5] = system: NCI60 human tumor cell lines; assay: NCI60 5-dose (dose-response) assay; assay type: cell-based
Text: Columns IE-KK. NCI: Misra group (data presented first in this paper). NCI60 anti-tumor cell activity. Methods: […] These 60 cell lines, along with others, have been developed at NCI and have been maintained and distributed for research purposes by NCI for over 25 years. The experimental readout provides both inhibition of cell growth and cell kill. The screen was originally designed to prioritize agents for further evaluation. […] This is the same as for the 5-dose assay, described on http://dtp.cancer.gov/branches/btb/ivclsp.html. […] Testing beyond the initial screen: There were 133 compounds that passed threshold to proceed to 5-dose (dose-response) (data are available for the 133 compounds at the DTP public website (dtp.cancer.gov) by searching either the MMV number or NSC number). After examination of the 5-dose data, 10 compounds were selected for repeat testing based generally on potency, differential cell activity or activity on an individual cell lines or cell line panel. A summary of the data for the 10 compounds of interest is in the table below.

[6] = read-out: P. falciparum 3D7 asexual blood stage EC50 (Image) Ayong
[7] = read-out: P. falciparum Dd2 asexual blood stage EC50 (Image) Ayong
[8] = read-out: P. falciparum HB3 asexual blood stage EC50 (Image) Ayong
[9] = read-out: P. falciparum W2 asexual blood stage EC50 (Image) Ayong
[10] = read-out: P. falciparum FCR3 asexual blood stage EC50 (Image) Ayong
[11] = read-out: P. falciparum K1 asexual blood stage EC50 (Image) Ayong
[12] = mean over cell lines of one experiment, listed as 766523/2

In the case of `COc1ccc(C(=O)Nc2ccc3nc(N4CCCCC4)cc(C)c3c2)cc1OC` [MMV019758], the EC50 (Toxoplasma gondii TS-4) is given as 25.7 µM, the “Naegleria fowleri % growth” value [1] is given as 87% and the “Brugia malayi 5d % dead” value (Brugia malayi) is given as 9%. The EC50 [2] was over 33.3 µM, the EC50 [3, 6] was 1.6 µM and the EC50 [3, 7] was 3.29 µM. It also gave an EC50 [3, 8] of 3.44 µM and an EC50 [3, 9] of 4.47 µM.

In the case of `COc1cc2cc(C(=O)Nc3ccccc3)c(N)nc2cc1OC` [MMV006767], the “Human hepatocyte CYP2D6 mRNA induction, 0.0 normal” value (CYP2D6 mRNA) is reported as -0.21, the “Human hepatocyte CYP3A4 mRNA induction, 0.0 normal” value (CYP3A4 mRNA) is reported as 0.0216 and the “Human hepatocyte MAOB mRNA induction, 0.0 normal” value (MAOB mRNA) is reported as -0.22. The “Naegleria fowleri % growth” value [1] was 95%, the “Human hepatocyte MAOA mRNA induction, 0.0 normal” value (MAOA mRNA) was 0.23 and the “Brugia malayi 5d % dead” value (Brugia malayi) was 18%. The EC50 [2] was over 33.3 µM, the “Human hepatocyte CYP2D8 mRNA induction, 0.0 normal” value (CYP2D8 mRNA) was -0.10 and the “Human hepatocyte CYP1A2 mRNA induction, 0.0 normal” value (CYP1A2 mRNA) was -0.09. It also gave an EC50 [3, 6] of 0.592 µM, an EC50 [3, 7] of 0.357 µM and an EC50 [3, 10] of 0.931 µM. It also gave an EC50 [3, 8] of 0.812 µM, an EC50 [3, 11] of 1.49 µM and an EC50 [3, 9] of 0.797 µM. For the same compound, the “Human hepatocyte CYP2C19 mRNA induction, 0.0 normal” value (CYP2C19 mRNA) was -0.39 and the “Human hepatocyte CYP2C9 mRNA induction, 0.0 normal” value (CYP2C9 mRNA) was -0.09.

For `CCN(CC)c1cc(C)c2cc(NC(=O)c3cccc(OC)c3)ccc2n1` [MMV000498], the “Naegleria fowleri % growth” value [1] was 80%, the “Brugia malayi 5d % dead” value (Brugia malayi) was 13% and the “Strongyloides stercoralis % dead” value [4] was 25%. For the same compound, the EC50 [2] was over 33.3 µM, the EC50 [3, 6] was 1.8 µM and the EC50 [3, 7] was 2.45 µM. It also gave an EC50 [3, 10] of 4.56 µM, an EC50 [3, 8] of 2.8 µM and an EC50 [3, 11] of 3.53 µM. It also gave an EC50 [3, 9] of 2.74 µM.

With `CCOC(=O)c1cnc2ccc(OC)cc2c1NCc1ccccc1` [MMV665813] the “Human hepatocyte CYP2D6 mRNA induction, 0.0 normal” value (CYP2D6 mRNA) was -1.27, the “Human hepatocyte CYP3A4 mRNA induction, 0.0 normal” value (CYP3A4 mRNA) was -0.06 and the “Human hepatocyte MAOB mRNA induction, 0.0 normal” value (MAOB mRNA) was -1.05. The “Naegleria fowleri % growth” value [1] was 91%, the “Human hepatocyte MAOA mRNA induction, 0.0 normal” value (MAOA mRNA) was -0.36 and the “Brugia malayi 5d % dead” value (Brugia malayi) was 12%. The EC50 [2] was over 33.3 µM, the “Human hepatocyte CYP2D8 mRNA induction, 0.0 normal” value (CYP2D8 mRNA) was -0.79 and the “Human hepatocyte CYP1A2 mRNA induction, 0.0 normal” value (CYP1A2 mRNA) was -0.15. The EC50 [3, 7] was 3.32 µM, the “Human hepatocyte CYP2C19 mRNA induction, 0.0 normal” value (CYP2C19 mRNA) was -0.35 and the “Human hepatocyte CYP2C9 mRNA induction, 0.0 normal” value (CYP2C9 mRNA) was -0.17.

With `CCN1CCN(c2cc(C)c3cc(NC(=O)c4ccc(OC)c(OC)c4)ccc3n2)CC1` [MMV019074] the “Notes (NCI60 5-dose activity pattern)” value [5] was “Specific lines sensitive”, the “MGLI50 = Mean Growth Log I50” value ([5]; 5-dose, mean over NCI60 panel) was -4.91 and the “_MID Log10GI50” value [5, 12] was -4.8 Molar and -5.03 Molar. The “_MID Log10LC50” value [5, 12] was -4.0 Molar and -4.04 Molar, the “_MID Log10TGI” value [5, 12] was -4.05 Molar and -4.25 Molar and the “Naegleria fowleri % growth” value [1] was 88%. For the same compound, the “Brugia malayi 5d % dead” value (Brugia malayi) was -2%, the EC50 [2] was over 33.3 µM and the EC50 [3, 6] was 0.904 µM. For the same compound, the EC50 [3, 7] was 1.27 µM, the EC50 [3, 10] was 2.61 µM and the EC50 [3, 8] was 1.5 µM. It also gave an EC50 [3, 11] of 1.32 µM and an EC50 [3, 9] of 2.95 µM.
